Laboratory results as given in patent publication US20190032014A1, “USING MICROBIOTA METABOLITES TO DIFFERENTIATE NAÏVE T-CELLS AND RELATED METHODS TO INDUCE OR PREVENT INFLAMMATORY CONDITIONS” (THE TEXAS A&M UNIVERSITY SYSTEM, priority 2016, published 2019).
“Also recorded” adds a separate entry of the source. Read-outs that look alike come from different tables or passages of the source.

Assays:
CD4+ CD25− naïve T cells = experiment: In vitro naïve T cell differentiation, Th17-skew (IL-17+ by FACS); assay type: cell-based, C57BL/6 mice; details: for effect on % IL-17+ cells / Th17 differentiation: vs DMF control
Procedure: Mesenteric lymph node (MLN) and spleen are harvested from WT or FOXP3^EGFP C57Bl/6 mice and homogenized. Spleen tissue is subjected to red blood cell lysis and pooled into a single cell suspension for counting. Counted cells are resuspended in sterile FACS buffer (PBS++ with 05% bovine serum albumin) at a concentration of ˜5×10^7 cells/mL and stained for 45 minutes at 4° C. with anti-CD4 and anti-CD25 fluorophore-conjugated monoclonal antibodies (mAb). After two washes, the stained cells are resuspended at ˜6×10^6 cells/mL in FACS buffer and immediately sorted. […] TDMMs are solubilized in DMF at 2 M and used at desired concentrations (e.g., 0.01, 0.1, 0.5 and 1.0 mM) in growth media; DMF in growth media (0.05%) is used as a solvent control.
The % of Treg or Th17 cells are determined based on the expression of signature transcription factors, FoxP3 and Rorγt, respectively. In addition, signature cytokine markers for Treg and Th17, TGFβ or IL-17, respectively, among others are measured using intracellular cytokine staining. Since it is possible that a cell could be positive for FoxP3 and still express some IL-17, the final % of Tregs are determined as the cell population that is FoxP3+TGFβ+ Rorγt-IL-17−. Similarly, the % of Th17 cells are determined as the population that is FoxP3-TGFβ− Rorγt+IL-17+.
CD4+ CD25− T cells were isolated to high purity (>98%) from the pooled spleen and mesenteric lymph nodes of C57BL/6 mice (Jackson Labs) with a BD FACS Aria II flow cytometer. Fc Block (BD), αCD4-efluor450 (eBioscience clone GK1.5) and αCD25-PECy7 (eBioscience clone PC61.5) antibodies were used for staining before sorting.
For Th1-skew: 5 ng/mL IL-12 (Peprotech cat. #210-12) and 10 µg/mL αIL-4 (BioXCell clone 11B11) were added to culture. For Th2-skew: 10 ng/mL IL-4 (Peprotech) and 10 μg/mL αIFN-γ (BioXCell clone R4-6A2) were added to culture. For Th17-skew: 10 ng/mL IL-6 (Peprotech), 5 ng/mL IL-23 (R&D), 0.5 ng/mL TGF-β (Peprotech), 10 μg/mL al-4 (BioXCell clone 11B11), and 10 μg/mL αIFN-γ (BioXCell clone R4-6A2) were added to culture. For Treg-skew: 2 ng/mL TGF-β (Peprotech) and 100 U/mL IL-2 (Roche) were added to culture. Sodium Propionate, sodium acetate, sodium butyrate and sodium chloride (all from Sigma-Aldrich) were solubilized in media and added to culture. Indole was solubilized in DMF (both from Sigma-Aldrich) at 2M and brought to final concentration in media. MGCD0103 (Selleck Chemicals) was solubilized in DMF at 2 mM and brought to final concentration in media. A 0.05% DMF solvent control was used for all experiments.

iTregs [1] = experiment: iTreg cytokine expression (TGF-β, IL-10); assay type: cell-based, mice
Procedure: FOXP3-EGFP naïve CD4+ CD25− cells cultured in αCD3/28 coated wells with Treg-skew cytokines and indole or solvent control were cultured for 72 hours, and assessed for FoxP3 expression and proliferation by CFSE dilution.
The iTregs were next assessed for cytokine production when conditioned with indole or butyrate.
For flow cytometry, cells are treated with Golgi plug (Brefeldin A) for four hours and then stained with fluorophore-conjugated mAbs against both inflammatory (e.g., IL-6, IL-12, IL-17, TNF-α) and anti-inflammatory (e.g., IL-10, IL-35, TGF-β) cytokines. Samples are stained with the maximum number of antibodies. Furthermore, expression of established Treg markers (FOXP3, CD25hi, CD103, CD62L, GITR, PD-1, CD152, CD127, ICOS, Granzyme-B) [Vignali, D. A., L. W. Collison, and C. J. Workman, Nat Rev Immunol 8(7):523-32. (2008); Chen, J., et al., Int Immunopharmacol 11(5):610-7 (2011)] and markers of an inflammatory phenotype (RORγT) can be analyzed. […] For all conditions, Tregs generated without the TDMM can be used as the control. The effect of the TDMMs on suppression of effector T cell proliferation is determined as described for FIG. 4. Such assays permit determination of whether the iTregs generated with different TDMMs are functional as natural Tregs.

[2] = test system: T cells of spleen and mesenteric lymph nodes; experiment: In vivo acute T cell activation (αCD3) in spleen and MLN; parameters: species or system mice; details: administered with αCD3 at 0 and 48 hrs
Procedure: After 52 additional hours, the spleens were harvested and homogenized. Cells were plated, stimulated with PMA/lonomycin, stained for the indicated T cell markers, and subjected to FACS analysis. The graphs show the % IFN-γ+ CD4+ cells (FIG. 26A), the % IFN-γ+ CD4+ CD44^low cells (FIG. 26B), and the % IFN-γ+ CD4+ CD44^high cells (FIG. 26C) resulting from the various treatments. […] The graphs show the % IFN γ+ CD4+ cells (FIG. 27A), the % IFN γ+ CD4+ CD44low cells (FIG. 27B), and the % IFN γ+ CD4+ CD44high cells (FIG. 27C) resulting from the various treatments.
Fifteen μg of αCD3 (BioXcell clone 145-2C11) was administered via intra-peritoneal injection at 0 and 48 hours. […] At 52 hours, spleen and mesenteric lymph nodes were isolated and plated individually at a concentration of 1×10^6 cells/well with RPMI media supplemented with 2-mercaptoethanol, gentamicin, penicillin, and streptomycin+10% FCS (all from Life Technologies) in a 96-well round bottom plate (Falcon). Cells were immediately stimulated for 4 hours and stained. Specifically, for the last four hours of culture, cells were treated with golgi plug (BD), PMA and ionomycin (both from Sigma-Aldrich).

NF-κB = details: intestinal epithelial cells (IECs); Bansal et al. 2010; cited from earlier work
iTregs [3] = test system: iTregs
Procedure: For example, TDMM- and control-induced Treg cultures from CD4+ CD25− GFP− naïve T cells of FOXP3EGFP mice are sorted based on GFP fluorescence. GFP+ cells (˜1×10^6 cells/mL) are cultured in the presence of pro-inflammatory cytokines IL-1, IL-6, IL-21 and IL-23 ±TCR stimulation on an anti-CD3/CD28 mAb coated plate for 24, 48 and 72 hours [Yang, X. O., et al., Immunity 29(1): p. […] Next, the stability (as measured by expression of FOXP3, RORγT, TGF-β, IL-10, IL-35 and IL-17) of TDMM-conditioned Tregs is analyzed compared to control-induced Tregs by ELISA of supernatants or 4 h treatment with Golgi plug (for cytokine staining) and subsequent intracellular staining with fluorophore-conjugated mAbs and flow cytometry.

Q: For `c1ccc2[nH]ccc2c1` [Indole, indole], which “expansion of Th17 cells (proportion)” value (CD4+ CD25− naïve T cells; 1 mM indole, Th17-skewing conditions, solvent control 13.5%) is on record?
A: 1.4%

Q: What about the “% IL-17+ cells, indole added to butyrate and 5-HI” value (CD4+ CD25− naïve T cells; Th17 skewing conditions) of the same molecule?
A: generally reversed after conditioning with indole

Q: What about the “% IL-17+ cells, indole combined with 5-HI” value (CD4+ CD25− naïve T cells; Th17 skewing conditions, vs 5-HI alone) of the same molecule?
A: not just negated, but actually reversed

Q: What about the “effect on % IL-17+ cells / Th17 differentiation” value (CD4+ CD25− naïve T cells; Th17 skewing conditions) of the same molecule?
A: significantly decreased the % of IL-17+ cells

Q: What about the “effect on % IL-17+ cells / Th17 differentiation” value (CD4+ CD25− naïve T cells; Th17 skewing conditions, listed as indole) of the same molecule?
A: dose-dependent; also recorded: inhibits a Th17 response; also recorded: inhibits the development of illustrates % IL-17+ cells

Q: What about the “Rorγt expression in Th17 cells” value (CD4+ CD25− naïve T cells; unpublished data) of the same molecule?
A: inhibits Rorγt expression in Th17 cells

Q: What about the “level of IL-17 expression (MFI)” value (CD4+ CD25− naïve T cells; vs solvent control) of the same molecule?
A: decreased

Q: And the TGF-β secretion (iTregs [1]; indole-conditioned Tregs vs control iTregs (DMF), overnight re-stimulation with αCD3)?
A: secrete more TGF-β than conventional control iTregs (DMF)

Q: What about the IL-10 expression (iTregs [1]; indole-conditioned iTregs) of the same molecule?
A: inhibition of IL-10 expression

Q: And the TGF-β expression (iTregs [1]; indole-conditioned vs butyrate-conditioned iTregs)?
A: increased TGF-β expression over butyrate-conditioned iTregs

Q: And the “Treg differentiation in vivo (MLN)” value ([2]; mesenteric lymph nodes)?
A: synergizes with butyrate for the induction of Treg cells in vivo; also recorded: can augment Treg development in vivo when administered to the subject directly

Q: And the “Th1 differentiation in vivo (% IFN-γ+ CD4+ cells, spleen)” value ([2]; spleen)?
A: suppresses butyrate induction of Th1 cells in vivo

Q: And the “NF-κB activation and indicators of inflammation” value (NF-κB)?
A: inhibits NF-κB activation and attenuates indicators of inflammation

Q: And the FoxP3 expression (iTregs [3]; control (DMF induced) iTregs in the presence of indole, after TCR stimulation (αCD3/28), without indole 9.3%)?
A: 26.1%

Q: And the FoxP3 expression (iTregs [3]; control (DMF induced) iTregs in the presence of indole, first value, before TCR stimulation)?
A: 52.8%

Q: And the FoxP3 expression (iTregs [3]; indole-induced iTregs cultured three days with 1 mM indole, first value)?
A: 64.2%

Q: What about the FoxP3 expression (iTregs [3]; indole-induced iTregs cultured three days with 1 mM indole, second value, after TCR stimulation) of the same molecule?
A: 52.2%

Q: What about the FoxP3 expression (iTregs [3]; indole-induced iTregs cultured three days with DMF, first value) of the same molecule?
A: 63%

Q: And the FoxP3 expression (iTregs [3]; indole-induced iTregs cultured three days with DMF, second value, after TCR stimulation)?
A: 24.9%
